Experimental findings from EP4603105A1, “PHARMACEUTICAL COMPOSITION CONTAINING CYCLIC COMPOUND HAVING SELECTIVE KRAS INHIBITORY EFFECT AGAINST HRAS AND NRAS” (CHUGAI SEIYAKU KABUSHIKI KAISHA, priority 2022, dated 2024) are described below.

The IC50 is the concentration that gives 50% inhibition.

The target of one assay is HRAS wild-type protein (Homo sapiens, UniProt P01112). In words: Binding to HRAS by surface plasmon resonance (SPR), KD and KD ratio to KRAS. The note with it: ratio of KD value for HRAS wild-type protein to KD value for KRAS (SPR). The procedure, abridged: (§1)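 GDP-loaded biotinylated Avi-tag RAS proteins (E. coli-expressed) captured on a Biotin CAPture chip at ~100–300 RU; single-cycle kinetics at 30°C, 100 µL/min, 75 s injections of rising compound concentrations. HBS pH 7.4 running buffer with 1 mM DTT, 10 mM MgCl2, 10 µM GDP, 4% DMSO. KD from 1:1 binding fit.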
For orientation: In SPR one partner is held on a chip, and binding of the other changes the refractive index at the surface.

In assay [1] the test system is human lung cancer strain NCI-H441. The format is cell-based. An outline of the steps: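 Readout: […] after the ATP-based reagent. Compound: serial dilutions in dimethyl sulfoxide.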
In assay [2] the target is GDP-bound NRAS wild-type protein (Homo sapiens, UniProt P01111). The assay can be described thus: Binding to NRAS by surface plasmon resonance (SPR), KD and KD ratio to KRAS. The conditions noted are these: ratio of KD value for GDP-bound NRAS wild-type protein to KD value for KRAS (SPR). An outline of the steps:
as §1

HRAS wild-type protein, sequence (P01112 whole entry): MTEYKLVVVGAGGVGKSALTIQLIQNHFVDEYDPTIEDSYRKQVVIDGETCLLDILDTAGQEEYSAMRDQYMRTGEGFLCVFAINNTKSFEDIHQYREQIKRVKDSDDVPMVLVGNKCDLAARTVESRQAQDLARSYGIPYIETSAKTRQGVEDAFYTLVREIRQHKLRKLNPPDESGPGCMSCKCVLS
GDP-bound NRAS wild-type protein, sequence (P01111 whole entry): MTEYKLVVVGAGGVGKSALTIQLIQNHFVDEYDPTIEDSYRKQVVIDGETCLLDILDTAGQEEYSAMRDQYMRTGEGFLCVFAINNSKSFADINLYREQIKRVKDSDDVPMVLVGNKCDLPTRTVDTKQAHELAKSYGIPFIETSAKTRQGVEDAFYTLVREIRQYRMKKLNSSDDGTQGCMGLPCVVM

Consider `CCO[C@@H]1C[C@H]2C(=O)NC3(CC(C)(C)C3)C(=O)N(C)[C@@H](C3CCCC3)C(=O)N(C)[C@H](C(=O)N(C)C)CC(=O)N(C)[C@@H](CC(F)F)C(=O)N[C@@H]([C@@H](C)CC)C(=O)N(C)CC(=O)N(C)[C@H]3C/C=C\CCN(C3=O)[C@@H](Cc3ccc(C(F)(F)F)cc3)C(=O)N(C)CC(=O)N[C@@H](CCc3ccc(C(F)(F)F)c(Cl)c3)C(=O)N2C1` [PP1747], for which the “HRAS /KRAS” value on HRAS wild-type protein was “A (a compound having 10 or more and less than 20 is denoted as A)”. This molecule also yielded an IC50 in assay [1] of 2.3 nM. The “NRAS /KRAS” value in assay [2] is “A (a compound having 10 or more and less than 20 is denoted as A)”.
As to `CCC[C@H]1C(=O)N[C@@H]([C@@H](C)CC)C(=O)N(C)CC(=O)N(C)[C@H]2C/C=C\CCN(C2=O)[C@@H](Cc2ccc(C(F)(F)F)cc2)C(=O)N(C)CC(=O)N[C@@H](CCc2ccc(C(F)(F)F)c(Cl)c2)C(=O)N2C[C@H](OCC)C[C@H]2C(=O)NC2(CC(C)(C)C2)C(=O)N(C)[C@@H](C2CCCC2)C(=O)N(C)[C@H](C(=O)N(C)C)CC(=O)N1C` [PP1748], the “HRAS /KRAS” value on HRAS wild-type protein is “B (a compound having 3 or more and less than 10 is denoted as B)”. In assay [1], the IC50 is 3.1 nM. Further, the “NRAS /KRAS” value in assay [2] is “A (a compound having 10 or more and less than 20 is denoted as A)”.
With `CCO[C@@H]1C[C@H]2C(=O)NC3(CC(C)(C)C3)C(=O)N(C)[C@@H](C3CCCC3)C(=O)N(C)[C@H](C(=O)N(C)C)CC(=O)N(C)[C@@H](CC3CC3)C(=O)N[C@@H]([C@@H](C)CC)C(=O)N(C)CC(=O)N(C)[C@H]3C/C=C\CCN(C3=O)[C@@H](Cc3ccc(C(F)(F)F)cc3)C(=O)N(C)CC(=O)N[C@@H](CCc3ccc(C(F)(F)F)c(Cl)c3)C(=O)N2C1` [PP1749], the “HRAS /KRAS” value at HRAS wild-type protein is “A (a compound having 10 or more and less than 20 is denoted as A)”. The same molecule returned a half-inhibitory concentration (IC50) in assay [1] of 3.3 nM. Also, the “NRAS /KRAS” value in assay [2] is “A (a compound having 10 or more and less than 20 is denoted as A)”.
For the molecule `CCCC[C@H]1C(=O)N[C@@H]([C@@H](C)CC)C(=O)N(C)CC(=O)N(C)[C@H]2C/C=C\CCN(C2=O)[C@@H](Cc2ccc(C(F)(F)F)cc2)C(=O)N(C)CC(=O)N[C@@H](CCc2ccc(C(F)(F)F)c(Cl)c2)C(=O)N2C[C@H](OCC)C[C@H]2C(=O)NC2(CC(C)(C)C2)C(=O)N(C)[C@@H](C2CCCC2)C(=O)N(C)[C@H](C(=O)N(C)C)CC(=O)N1C` [PP1750], at HRAS wild-type protein, the “HRAS /KRAS” value is “B (a compound having 3 or more and less than 10 is denoted as B)”. The same molecule came in with an IC50 in assay [1] of 3.4 nM. Besides, the “NRAS /KRAS” value in assay [2] is “A (a compound having 10 or more and less than 20 is denoted as A)”.
For `CCO[C@@H]1C[C@H]2C(=O)NC3(CC(C)(C)C3)C(=O)N(C)[C@@H](C3CCCC3)C(=O)N(C)[C@H](C(=O)N(C)C)CC(=O)N(C)[C@@H](CC(C)C)C(=O)N[C@@H]([C@@H](C)CC)C(=O)N(C)CC(=O)N(C)[C@H]3C/C=C\CCN(C3=O)[C@@H](Cc3ccc(C(F)(F)F)cc3)C(=O)N(C)CC(=O)N[C@@H](CCc3ccc(C(F)(F)F)c(Cl)c3)C(=O)N2C1` [PP1751], at HRAS wild-type protein, the “HRAS /KRAS” value is “A (a compound having 10 or more and less than 20 is denoted as A)”. It took 2.2 nM to reach half-maximal inhibition in assay [1] (IC50). The “NRAS /KRAS” value in assay [2] was “A (a compound having 10 or more and less than 20 is denoted as A)”.
Take `CCO[C@@H]1C[C@H]2C(=O)NC3(CC(C)(C)C3)C(=O)N(C)[C@@H](C3CCCC3)C(=O)N(C)[C@H](C(=O)N(C)C)CC(=O)N(C)[C@@H](CC3CCC3)C(=O)N[C@@H]([C@@H](C)CC)C(=O)N(C)CC(=O)N(C)[C@H]3C/C=C\CCN(C3=O)[C@@H](Cc3ccc(C(F)(F)F)cc3)C(=O)N(C)CC(=O)N[C@@H](CCc3ccc(C(F)(F)F)c(Cl)c3)C(=O)N2C1` [PP1752]: the “HRAS /KRAS” value on HRAS wild-type protein is “A (a compound having 10 or more and less than 20 is denoted as A)”. Further, the IC50 in assay [1] stood at 5.8 nM. Also, the “NRAS /KRAS” value in assay [2] is “A (a compound having 10 or more and less than 20 is denoted as A)”.
As to `CCO[C@@H]1C[C@H]2C(=O)NC3(CC(C)(C)C3)C(=O)N(C)[C@@H](C3CCCC3)C(=O)N(C)[C@H](C(=O)N(C)C)CC(=O)N(C)[C@@H](COC)C(=O)N[C@@H]([C@@H](C)CC)C(=O)N(C)CC(=O)N(C)[C@H]3C/C=C\CCN(C3=O)[C@@H](Cc3ccc(C(F)(F)F)cc3)C(=O)N(C)CC(=O)N[C@@H](CCc3ccc(C(F)(F)F)c(Cl)c3)C(=O)N2C1` [PP1753], the “HRAS /KRAS” value at HRAS wild-type protein was “A (a compound having 10 or more and less than 20 is denoted as A)”. This molecule displayed an IC50 in assay [1] of 5.9 nM. For the same molecule, the “NRAS /KRAS” value in assay [2] was “A (a compound having 10 or more and less than 20 is denoted as A)”.
In the case of `CCCOC[C@H]1C(=O)N[C@@H]([C@@H](C)CC)C(=O)N(C)CC(=O)N(C)[C@H]2C/C=C\CCN(C2=O)[C@@H](Cc2ccc(C(F)(F)F)cc2)C(=O)N(C)CC(=O)N[C@@H](CCc2ccc(C(F)(F)F)c(Cl)c2)C(=O)N2C[C@H](OCC)C[C@H]2C(=O)NC2(CC(C)(C)C2)C(=O)N(C)[C@@H](C2CCCC2)C(=O)N(C)[C@H](C(=O)N(C)C)CC(=O)N1C` [PP1754], the “HRAS /KRAS” value at HRAS wild-type protein was “A (a compound having 10 or more and less than 20 is denoted as A)”. Besides, the IC50 in assay [1] is 3 nM. Further, in assay [2], the “NRAS /KRAS” value is “A (a compound having 10 or more and less than 20 is denoted as A)”.
Regarding `CCCN(C)C(=O)[C@@H]1CC(=O)N(C)[C@@H](CC(F)F)C(=O)N[C@@H]([C@@H](C)CC)C(=O)N(C)CC(=O)N(C)[C@H]2C/C=C\CCN(C2=O)[C@@H](Cc2ccc(C(F)(F)F)cc2)C(=O)N(C)CC(=O)N[C@@H](CCc2cc(F)c(Cl)c(F)c2)C(=O)N2C[C@H](OCC)C[C@H]2C(=O)NC2(CC(C)(C)C2)C(=O)N(C)[C@@H](C2CCCC2)C(=O)N1C` [PP1757], the “HRAS /KRAS” value on HRAS wild-type protein was “A (a compound having 10 or more and less than 20 is denoted as A)”. In assay [1], this molecule yielded an IC50 of 7.1 nM. Also, the “NRAS /KRAS” value in assay [2] was “AA (a compound having 20 or more is denoted as AA)”.
For `CCC[C@H]1C(=O)N[C@@H]([C@@H](C)CC)C(=O)N(C)CC(=O)N(C)[C@H]2C/C=C\CCN(C2=O)[C@@H](Cc2ccc(C(F)(F)F)cc2)C(=O)N(C)CC(=O)N[C@@H](CCc2cc(F)c(Cl)c(F)c2)C(=O)N2C[C@H](OCC)C[C@H]2C(=O)NC2(CC(C)(C)C2)C(=O)N(C)[C@@H](C2CCCC2)C(=O)N(C)[C@H](C(=O)N(C)C)CC(=O)N1C` [PP1758], the “HRAS /KRAS” value at HRAS wild-type protein is “A (a compound having 10 or more and less than 20 is denoted as A)”. In assay [1], this molecule showed an IC50 of 6 nM. Further, the “NRAS /KRAS” value in assay [2] is “AA (a compound having 20 or more is denoted as AA)”.
For `CCO[C@@H]1C[C@H]2C(=O)NC3(CC(C)(C)C3)C(=O)N(C)[C@@H](C3CCCC3)C(=O)N(C)[C@H](C(=O)N(C)C)CC(=O)N(C)[C@@H](CC3CC3)C(=O)N[C@@H]([C@@H](C)CC)C(=O)N(C)CC(=O)N(C)[C@H]3C/C=C\CCN(C3=O)[C@@H](Cc3ccc(C(F)(F)F)cc3)C(=O)N(C)CC(=O)N[C@@H](CCc3cc(F)c(Cl)c(F)c3)C(=O)N2C1` [PP1759], the “HRAS /KRAS” value on HRAS wild-type protein is “A (a compound having 10 or more and less than 20 is denoted as A)”. Further, in assay [1], the IC50 stood at 6.2 nM. The “NRAS /KRAS” value in assay [2] was “A (a compound having 10 or more and less than 20 is denoted as A)”.
With `CCO[C@@H]1C[C@H]2C(=O)NC3(CC(C)(C)C3)C(=O)N(C)[C@@H](C3CCCC3)C(=O)N(C)[C@H](C(=O)N(C)C)CC(=O)N(C)[C@@H](CC(C)C)C(=O)N[C@@H]([C@@H](C)CC)C(=O)N(C)CC(=O)N(C)[C@H]3C/C=C\CCN(C3=O)[C@@H](Cc3ccc(C(F)(F)F)cc3)C(=O)N(C)CC(=O)N[C@@H](CCc3cc(F)c(Cl)c(F)c3)C(=O)N2C1` [PP1761], the “HRAS /KRAS” value on HRAS wild-type protein is “A (a compound having 10 or more and less than 20 is denoted as A)”. The same molecule registered an IC50 in assay [1] of 5.2 nM. For the same molecule, the “NRAS /KRAS” value in assay [2] is “A (a compound having 10 or more and less than 20 is denoted as A)”.
In the case of `CCO[C@@H]1C[C@H]2C(=O)NC3(CC(C)(C)C3)C(=O)N(C)[C@@H](C3CCCC3)C(=O)N(C)[C@H](C(=O)N(C)C)CC(=O)N(C)[C@@H](CC3CCC3)C(=O)N[C@@H]([C@@H](C)CC)C(=O)N(C)CC(=O)N(C)[C@H]3C/C=C\CCN(C3=O)[C@@H](Cc3ccc(C(F)(F)F)cc3)C(=O)N(C)CC(=O)N[C@@H](CCc3cc(F)c(Cl)c(F)c3)C(=O)N2C1` [PP1762], the “HRAS /KRAS” value on HRAS wild-type protein is “A (a compound having 10 or more and less than 20 is denoted as A)”. In assay [1], this molecule registered an IC50 of 8.4 nM. In addition, the “NRAS /KRAS” value in assay [2] was “A (a compound having 10 or more and less than 20 is denoted as A)”.
Regarding `CCCN(C)C(=O)[C@@H]1CC(=O)N(C)[C@@H](COC)C(=O)N[C@@H]([C@@H](C)CC)C(=O)N(C)CC(=O)N(C)[C@H]2C/C=C\CCN(C2=O)[C@@H](Cc2ccc(C(F)(F)F)cc2)C(=O)N(C)CC(=O)N[C@@H](CCc2cc(F)c(Cl)c(F)c2)C(=O)N2C[C@H](OCC)C[C@H]2C(=O)NC2(CC(C)(C)C2)C(=O)N(C)[C@@H](C2CCCC2)C(=O)N1C` [PP1763], the “HRAS /KRAS” value at HRAS wild-type protein is “A (a compound having 10 or more and less than 20 is denoted as A)”. The molecule further came in with an IC50 in assay [1] of 13.3 nM. Besides, the “NRAS /KRAS” value in assay [2] was “A (a compound having 10 or more and less than 20 is denoted as A)”.
For the molecule `CCCOC[C@H]1C(=O)N[C@@H]([C@@H](C)CC)C(=O)N(C)CC(=O)N(C)[C@H]2C/C=C\CCN(C2=O)[C@@H](Cc2ccc(C(F)(F)F)cc2)C(=O)N(C)CC(=O)N[C@@H](CCc2cc(F)c(Cl)c(F)c2)C(=O)N2C[C@H](OCC)C[C@H]2C(=O)NC2(CC(C)(C)C2)C(=O)N(C)[C@@H](C2CCCC2)C(=O)N(C)[C@H](C(=O)N(C)C)CC(=O)N1C` [PP1764], the “HRAS /KRAS” value on HRAS wild-type protein was “A (a compound having 10 or more and less than 20 is denoted as A)”. The same molecule came in with an IC50 in assay [1] of 11.1 nM. Besides, in assay [2], the “NRAS /KRAS” value was “AA (a compound having 20 or more is denoted as AA)”.
